The METLIN SMRT retention time set (Domingo-Almenara et al. 2019)

Assay: gradient 5% acetonitrile 3 min, to 50% in 2 min, to 85% in 15 min, held 3 min, 100 µL/min
Settings: column: Zorbax Extend-C18 2.1 x 50 mm; eluents: water / acetonitrile, 0.1% formic acid
Outline: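 Pure standards were analyzed in mixtures of ~100 molecules using HPLC coupled to a quadrupole time-of-flight mass spectrometer, in both positive and negative ionization mode. Separation used a Zorbax Extend-C18 column (2.1 × 50 mm, 1.8 μm) at 100 μL/min, with water and acetonitrile each containing 0.1% formic acid. Dead and dwell volumes were 40 μL and 900 μL, and data were collected over 3 months. Retention time was read from computationally picked adduct peaks, each inspected manually.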

| RP-LC retention time | SMILES |
| --- | --- |
| 908 s | Cc1ccccc1CC(=O)Nc1nnc(SCc2nnc(-c3ccccc3)o2)s1 |
| 855 s | Cc1ccc(S(=O)(=O)N2C(=O)CCC2C(=O)NC2CCCC2)cc1C (stereo unspecified) |
| 738 s | Cc1cc2[nH]c(C(=O)Nc3ccc(Cl)cc3C)c(CN3CCOCC3)c2s1 |
| 773 s | O=C(Nc1ccc2c(c1)OCCO2)N1CCC(N2CCN(Cc3ccc(F)cc3)C2=O)CC1 |
| 636 s | COC[C@@H]1CN(c2cnccn2)C[C@H]1C(=O)NCc1ccc(C)o1 |
| 712 s | O=C(CN1C(=O)COc2ccccc21)N1CCSCC1 |
| 618 s | O=C(Cn1cnc2c(nc3n2CCCCC3)c1=O)NCc1ccco1 |
| 665 s | O=c1cccnn1CCNS(=O)(=O)c1ccc(F)c(Cl)c1 |
| 1070 s | Cc1ccc(N2CC(c3nc(-c4ccc5c(c4)nnn5C4CCCC4)no3)CC2=O)cc1 (stereo unspecified) |
| 996 s | COc1cc(-c2noc(Cc3nnc(-c4ccc(C)c(F)c4)o3)n2)cc(OC)c1OC |
| 827 s | Cc1ccc(C(=O)N2C[C@@H]3C[C@H]2C[C@@H]3NS(=O)(=O)c2cccs2)cc1F |
| 894 s | CCn1ccc2sc(C)c(C(=O)NC3CCCCCC3)c2c1=O |
| 643 s | CCOC(=O)C1=C(CN2CCN(c3ccccn3)CC2)NC(=O)NC1c1ccc(Cl)cc1 (stereo unspecified) |
| 590 s | CCCC(=O)N1CCC(C(=O)Nc2nnc(C)s2)CC1 |
| 616 s | CCN(Cc1ccccc1)Cc1cc(=O)n2cc(Cl)ccc2n1 |
| 1230 s | Cc1cc(C)cc(-c2nnc(Cc3nc(-c4cccc(Cl)c4)no3)o2)c1 |
| 678 s | O=C1CCCN1CCCN1C(=O)[C@H]2CN(Cc3cccc(OC(F)(F)F)c3)C[C@H]2C1=O |
| 760 s | CN1C(=O)c2cc(C(=O)NCc3cccc(F)c3)nn2CC1(C)C(=O)NCc1ccc(F)cc1 (stereo unspecified) |
| 1010 s | CC1CCN(c2cc(-c3noc(C(=O)N4CCc5ccccc5C4)n3)ccn2)CC1 |
| 683 s | CC(C)Cn1c(CCNC(=O)c2ccccc2)nc2cccnc21 |
| 560 s | COC(=O)c1cc2c(=O)n(CCN3CCOCC3)ccc2nc1C |
| 861 s | CCCNC(=O)N1CC(Oc2ccc(-c3nc(-c4ccccc4)no3)cc2)C1 |
| 1130 s | COc1ccc(Cl)cc1S(=O)(=O)N1CCc2nc(-c3ccc(F)cc3)ncc2C1 |
| 679 s | O=C(NCCOCCOCCNC(=O)Nc1ccccc1)Nc1ccccc1 |

The remaining lines, values behind:

| SMILES | RP-LC retention time |
| --- | --- |
| O=C(CN1C(=O)c2ccccc2C1=O)NCC1CCS(=O)(=O)C1 (stereo unspecified) | 586 s |
| CCOc1ccc(CC(=O)Nc2cc(-c3cccnc3)no2)cc1 | 760 s |
| Cc1ccn2cc(-c3ccc(NS(=O)(=O)c4cc(C(C)C)ccc4C)cc3)nc2n1 | 745 s |
| CCn1c(=O)c2ccccc2n(Cc2nc(-c3ccc(OC)c(OC)c3)no2)c1=O | 920 s |
| O=C(O)C1=CCCN(CCON=C(c2ccccc2)c2ccccc2)C1 | 766 s |
| COCCOCc1nc(C2CCCN2C(=O)c2ccoc2)no1 (stereo unspecified) | 656 s |
| Cc1nn(CCCC(=O)NCCN2CCCC2)c(=O)c2c(-n3cccc3)n(-c3ccccc3)nc12 | 666 s |
| CCOc1cc(-c2ccccc2)nc2ccc(NS(=O)(=O)c3ccc(NC(C)=O)cc3)cc12 | 669 s |
| Cc1noc(CN2CCN(C3CCN(Cc4cc(F)ccc4F)C3)C2=O)n1 (stereo unspecified) | 576 s |
| Cc1ccc(C)c(S(=O)(=O)N2CCCC2c2nc(-c3ccc(Cl)cc3)no2)c1 (stereo unspecified) | 1270 s |
| Cc1ccc(-n2cc(C3=CCN(CC(=O)N4CCN(c5ccccn5)CC4)CC3)cn2)cc1 | 584 s |
| CC1CCCN(CCCNC(=O)CN2C(=O)CCc3cc(S(=O)(=O)N4CCCCC4)ccc32)C1 (stereo unspecified) | 638 s |
| CC(C)CN1CCN(C(=O)COc2ccc(NC(=O)C3CC3)cn2)CC1 | 570 s |
| O=C(Nc1cccn2c(C3CCC3)nnc12)c1cc2ccccc2[nH]1 | 818 s |
| CCN1CCN(C(=O)C2CCCN(S(=O)(=O)c3ccc(OC)c(C)c3)C2)CC1 (stereo unspecified) | 636 s |
| Cc1cc(N(CCO)CCO)n2nc(-c3ccc(C(C)(C)C)cc3)nc2n1 | 687 s |
| COc1cccc(-c2ccc(=O)n(Cc3nc(-c4ccc(Cl)cc4)no3)n2)c1 | 1110 s |
| CCn1ccc2c(cc(C(=O)Nc3cc(C)c(Cl)cc3OC)n2C)c1=O | 933 s |
| CC(C)n1c(-c2cccc(C(=O)N3CCC4(CC3)OCCO4)c2)nc2cccnc21 | 693 s |
| CC(=O)NC(C)C(=O)N1CCC(CCOc2cccnc2)CC1 (stereo unspecified) | 567 s |
| CC1CCCN(Cc2nc(-c3ccc(N(C)Cc4ccccc4)nc3)no2)C1 (stereo unspecified) | 734 s |

| SMILES | RP-LC retention time |
| --- | --- |
| COc1ccc(C(C)NC(=O)C2CCN(c3cncnc3N3CCCCC3)CC2)cc1 (stereo unspecified) | 685 s |
| CCn1cc(C(=O)NC2CCN(c3ccc(=O)n(CCOc4ccccc4)n3)C2)cn1 (stereo unspecified) | 692 s |
| COCCNc1c(-c2ccccc2)nc2sc(C(=O)N(C)C)c(C)n12 | 643 s |
| COc1ccc(Cl)cc1NC(=O)c1n[nH]c2ccccc12 | 1010 s |
| O=C(CN1C(=O)C(C(=O)N2CCCCCC2)Sc2ccccc21)N1CCN(c2ncccn2)CC1 (stereo unspecified) | 784 s |
| CC(C)NC(=O)CN1C(=O)C2CCCCN2c2ccc(S(=O)(=O)N3CCCCC3)cc21 (stereo unspecified) | 850 s |
| CCOc1ccc(-n2cc(C(=O)OC(C)C)c3ccccc3c2=O)cc1 | 1220 s |
| COc1cc2c(cc1CC=C(C)C)C(=O)C[C@@H](c1ccc(O)cc1)O2 | 1190 s |
| CC1CCCCN1Cc1nc(-c2ccc(N(C)Cc3ccccc3)nc2)no1 (stereo unspecified) | 912 s |
| Clc1ccc(-c2nc3ccccn3c2Nc2ccc3c(c2)OCCO3)cc1 | 708 s |
| Cc1ccccc1-n1c(SCc2nc(-c3ccccc3)no2)nc2cc3c(cc2c1=O)OCO3 | 1190 s |
| COC(=O)c1cc2c(cc1NC(=O)C1CCCN(c3ncnc4c3nc3n4CCCCC3)C1)OCO2 (stereo unspecified) | 943 s |
| CCc1ccc(CNC(=O)C2CCCN(c3nc4c(s3)c(C)nn4-c3ccc(F)cc3)C2)cc1 (stereo unspecified) | 1240 s |
| O=C(CSc1ccc(N2CCCC(C(=O)NC3CC3)C2)nn1)Nc1ccccc1F (stereo unspecified) | 643 s |
| COc1ccc(C(=O)N2CCCC(c3nnc(-c4ccccc4)o3)C2)cc1 (stereo unspecified) | 804 s |
| COc1ccccc1NC(=O)c1ccc2nc(-c3ccccc3)cn2c1 | 725 s |
| Cc1ccccc1-c1nc2cnccn2c1NCCC(=O)NC(C)c1cccs1 (stereo unspecified) | 659 s |
| CCCc1cc(N2CCN(C(=O)c3sccc3C)CC2)nc2nnc(C)n12 | 566 s |
| CCCC(=O)Nc1ccc2c(c1)CN(C(=O)Cc1ccc(C)cc1)C(C(=O)N(C)C)C2 (stereo unspecified) | 748 s |
| COc1ccc(N2CCN(c3cc(SCC(=O)NCCC4=CCCCC4)ncn3)CC2)cc1 | 1080 s |
| COc1ccc(CN2C(=O)COC[C@H]2C(=O)NCc2ccco2)c(OC)c1 | 704 s |
